Literature values as cited in patent publication US20050123612A1, “Ribavirin granulate for producing coated tablets” (priority 2001, published 2005).

System: embryo development
Details: animal experiments; in particular first six weeks of embryo development

Compound: NC(=O)c1ncn([C@@H]2O[C@H](CO)[C@@H](O)[C@H]2O)n1 [ribavirin, 1-β-D-Ribafuranosyl-1,2,4-triazole-3-carboxamide]
- teratogenicity: teratogenic
